Test results as given in patent US20060142319A1, “Pyridyl-substituted spiro-hydantoin crystalline forms and process” (priority 2004, published 2006).

Assays:
[1] = Microsomal liver assay (rate of oxidative metabolism); assay type: in vitro ADME; conditions: human liver microsomes; 3 μM test compound, 1 mg/mL microsomal proteins, NADPH, 37° C.
Experimental: Mouse and rat liver microsomes were purchased from XenoTech LLC (Kansas City, Kans.), and human liver microsomes were obtained from BD Gentest (Woburn, Mass.).
The oxidative metabolism in liver microsomes of various species was studied under the following condition: 3 μM test compound (organic solvent content <0.1%), 1 mg/mL microsomal proteins, 1 mM β-nicotinamide adenine dinucleotide phosphase (β-NADPH), 100 mM phosphate buffer (pH 7.4), and 6.7 mM magnesium chloride. The reaction (n=3) was initiated by the addition of NADPH followed by incubation at 37° C. for 20 min. Aliquots of samples (0.1 mL) were taken at 0, 5, and 20 min, and the reaction was quenched by the addition of three volumes of acetonitrile. Samples were stored at −20° C. until analysis.
The rate of oxidation in liver microsomes was determined from the following equation: rate (nmol/min/mg protein)=k*C0/Cprotein, where k (1/min) is the turnover rate constant estimated from non-linear regression of the percent compound remaining (y)-time (t) curve using the equation y=y0*exp(−k*t); C0 is initial drug concentration (μM), and Cprotein is microsomal protein concentration (mg/mL).
Rates of metabolism are “binned” (classified) as follows: […]

CYP 2C19 = CYP 2C19 (Homo sapiens, UniProt P33261); assay: CYP assay; assay type: in vitro ADME; conditions: CYP assay per Drug Metabolism and Disposition 28, 1440-1448 (2000)
Experimental: The CYP assay was conducted according to the procedure in Drug Metabolism and Disposition, 28, 1440-1448 (2000).

CYP 2C19, sequence (P33261 whole entry): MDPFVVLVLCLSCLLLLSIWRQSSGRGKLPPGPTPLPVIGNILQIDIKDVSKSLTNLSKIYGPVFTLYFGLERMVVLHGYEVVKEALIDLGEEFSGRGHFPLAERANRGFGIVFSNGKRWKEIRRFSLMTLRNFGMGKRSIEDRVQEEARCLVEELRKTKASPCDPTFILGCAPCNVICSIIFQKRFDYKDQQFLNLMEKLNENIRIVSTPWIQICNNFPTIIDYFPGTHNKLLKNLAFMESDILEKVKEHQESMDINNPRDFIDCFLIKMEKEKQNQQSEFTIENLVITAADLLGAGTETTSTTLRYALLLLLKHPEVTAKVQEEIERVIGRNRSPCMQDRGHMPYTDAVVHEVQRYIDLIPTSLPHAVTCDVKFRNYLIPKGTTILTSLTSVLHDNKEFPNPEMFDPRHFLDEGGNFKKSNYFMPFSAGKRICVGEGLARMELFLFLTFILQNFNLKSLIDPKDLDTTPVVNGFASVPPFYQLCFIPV

SMILES | rate of metabolism [1] | IC50 (CYP 2C19)
CN1C(=O)N(c2cc(Cl)cc(Cl)c2)C(=O)[C@]12CN(c1ccccn1)C[C@H]2c1ccc(C#N)cc1 (relative stereo) [4-[(5S*,9R*)-3-(3,5-dichlorophenyl)-1-methyl-2,4-dioxo-7-pyridin-2-yl-1,3,7-triazaspiro[4.4]non-9-yl]-benzonitrile] | 0.2 nmol/min/mg | 0.11 µM
CN1C(=O)N(c2cc(Cl)cc(Cl)c2)C(=O)[C@]12CN(c1ccc(C(=O)O)cn1)C[C@H]2c1ccc(C#N)cc1 [IId, 6-[(5S,9R)-9-(4-cyanophenyl)-3-(3,5-dichlorophenyl)-1-methyl-2,4-dioxo-1,3,7-triazaspiro[4.4]non-7-yl]nicotinic acid] | 0.01 ± 0.01 nmol/min/mg | 38.2 ± 2.22 µM
